What follows are molecules tested on Mus musculus (assay: Anti-inflammatory activity in para-xylene-induced Kunming mouse ear-swelling model assessed as inhibition of ear swelling at 5 mg/kg, ig measured after 1 hr relative to control). Conditions: po.
Assay type: functional
Work on `Cc1ccc(-c2cc(C(F)(F)F)nn2-c2ccc(S(N)(=O)=O)cc2)cc1` [CELECOXIB] yielded an inhibition in vivo at 5 mg/kg of 77%.

The molecules below were run on Mus musculus (assay: Anti-inflammatory activity in para-xylene-induced Kunming mouse ear-swelling model assessed as inhibition of ear swelling at 100 mg/kg, ig measured after 1 hr relative to control). Conditions: po.
Assay type: functional
`CC(=O)Oc1ccccc1C(=O)O` [ASPIRIN] was tested, and the inhibition in vivo at 100 mg/kg was 64.9%.

These molecules were tested on RAW264.7 (assay: Anti-inflammatory activity in mouse RAW264.7 cells assessed as inhibition of LPS-induced IL-6 production pretreated for 2 hrs followed by LPS challenge measured after 22 hrs by ELISA). Conditions: not given.
Assay type: functional, cell-based
With `COc1ccc(/C=C/C(=O)c2ccc(N3CCN(S(=O)(=O)c4ccc(Br)cc4)CC3)cc2)cc1OC` the inhibition was “Dose-dependent effect”.

The molecules below were run on RAW264.7 (assay: Cytotoxicity against mouse RAW264.7 cells at < 50 uM by MTT assay). Conditions: not given.
Assay type: cell-based
`COc1ccc(/C=C/C(=O)c2ccc(N3CCN(S(=O)(=O)c4ccc(Br)cc4)CC3)cc2)cc1OC` was tested, and the Activity was “Non-Toxic”.

What follows are molecules tested on Mus musculus (assay: Anti-inflammatory activity in para-xylene-induced Kunming mouse ear-swelling model assessed as inhibition of ear swelling at 40 mg/kg, ig measured after 1 hr relative to control). Conditions: po.
Assay type: functional
`O=C(/C=C/c1ccc(Cl)cc1)c1ccc(N2CCN(c3cccc(Cl)c3)CC2)cc1` was tested, and the inhibition in vivo at 40 mg/kg was 5.85%.
Work on `O=C(/C=C/c1ccccc1)c1ccccc1` [CHALCONE] yielded an inhibition in vivo at 40 mg/kg of 21.7%.
In the case of `COc1cccc(N2CCN(c3ccc(C(=O)/C=C/c4ccc(Cl)cc4)cc3)CC2)c1`, the inhibition in vivo at 40 mg/kg is reported as 2.28%.
In the case of `O=C(/C=C/c1ccccc1)c1ccc(N2CCN(c3ccccc3)CC2)cc1`, the inhibition in vivo at 40 mg/kg is reported as 3.71%.
`COc1ccc(S(=O)(=O)N2CCN(c3ccc(C(=O)/C=C/c4ccc(OC)c(OC)c4)cc3)CC2)cc1` was tested, and the inhibition in vivo at 40 mg/kg was 64%.
`O=C(/C=C/c1ccccc1)c1ccc(N2CCN(c3cccc(C(F)(F)F)c3)CC2)cc1` showed an inhibition in vivo at 40 mg/kg of 25%.
In the case of `O=C(/C=C/c1ccccc1)c1ccc(N2CCN(S(=O)(=O)c3ccc(Cl)cc3)CC2)cc1`, the inhibition in vivo at 40 mg/kg is reported as 46.8%.
In the case of `COc1ccc(S(=O)(=O)N2CCN(c3ccc(C(=O)/C=C/c4ccccc4)cc3)CC2)cc1`, the inhibition in vivo at 40 mg/kg is reported as 45.2%.
For `O=C(/C=C/c1ccccc1)c1ccc(N2CCN(S(=O)(=O)c3ccccc3)CC2)cc1`, the inhibition in vivo at 40 mg/kg was 30%.
Molecule `O=C(/C=C/c1ccccc1)c1ccc(N2CCN(c3cccc(Cl)c3Cl)CC2)cc1` has an inhibition in vivo at 40 mg/kg of 30.7%.
`O=C(/C=C/c1ccccc1)c1ccc(N2CCN(c3ccc(Cl)c(Cl)c3)CC2)cc1` was tested, and the inhibition in vivo at 40 mg/kg was 13.4%.
With `O=C(/C=C/c1ccccc1)c1ccc(N2CCN(S(=O)(=O)c3ccc(C(F)(F)F)cc3)CC2)cc1` the inhibition in vivo at 40 mg/kg was 47.9%.
`Cc1ccc(N2CCN(c3ccc(C(=O)/C=C/c4ccc(Cl)cc4)cc3)CC2)c(C)c1` showed an inhibition in vivo at 40 mg/kg of 25.7%.
With `COc1cccc(N2CCN(c3ccc(C(=O)/C=C/c4ccccc4)cc3)CC2)c1` the inhibition in vivo at 40 mg/kg was 16%.
Work on `O=C(/C=C/c1ccc(Cl)cc1)c1ccc(N2CCN(S(=O)(=O)c3ccc(Cl)cc3)CC2)cc1` yielded an inhibition in vivo at 40 mg/kg of 56.6%.
`CCCCc1ccc(S(=O)(=O)N2CCN(c3ccc(C(=O)/C=C/c4ccccc4)cc3)CC2)cc1` showed an inhibition in vivo at 40 mg/kg of 24%.
`COc1ccccc1N1CCN(c2ccc(C(=O)/C=C/c3ccc(Cl)cc3)cc2)CC1` was tested, and the inhibition in vivo at 40 mg/kg was 6.13%.
`O=C(/C=C/c1ccc(Cl)cc1)c1ccc(N2CCN(S(=O)(=O)c3ccc(C(F)(F)F)cc3)CC2)cc1` was tested, and the inhibition in vivo at 40 mg/kg was 59.6%.
`O=C(/C=C/c1ccccc1)c1ccc(N2CCN(S(=O)(=O)c3ccc(OC(F)(F)F)cc3)CC2)cc1` gave an inhibition in vivo at 40 mg/kg of 47.4%.
`Cc1cc(C)c(S(=O)(=O)N2CCN(c3ccc(C(=O)/C=C/c4ccccc4)cc3)CC2)c(C)c1` was tested, and the inhibition in vivo at 40 mg/kg was 55.5%.
Work on `O=C(/C=C/c1ccccc1)c1ccc(N2CCN(c3ccccc3Cl)CC2)cc1` yielded an inhibition in vivo at 40 mg/kg of 4.71%.
In the case of `Cc1ccc(N2CCN(c3ccc(C(=O)/C=C/c4ccccc4)cc3)CC2)c(C)c1`, the inhibition in vivo at 40 mg/kg is reported as 15%.
With `COc1ccc(/C=C/C(=O)c2ccc(N3CCN(S(=O)(=O)c4ccc(Br)cc4)CC3)cc2)cc1OC` the inhibition in vivo at 40 mg/kg was 75.5%.
For `O=C(/C=C/c1ccccc1)c1ccc(N2CCN(c3ccc([N+](=O)[O-])cc3)CC2)cc1`, the inhibition in vivo at 40 mg/kg was 55.4%.
`COc1ccc(S(=O)(=O)N2CCN(c3ccc(C(=O)/C=C/c4ccccc4)cc3)CC2)cc1OC` was tested, and the inhibition in vivo at 40 mg/kg was 55.5%.
`O=C(/C=C/c1ccccc1)c1ccc(N2CCN(S(=O)(=O)c3ccc(Br)cc3)CC2)cc1` gave an inhibition in vivo at 40 mg/kg of 47.4%.
`O=C(/C=C/c1ccccc1)c1ccc(N2CCN(S(=O)(=O)c3ccc4ccccc4c3)CC2)cc1` gave an inhibition in vivo at 40 mg/kg of 35%.
For `Cc1ccc(S(=O)(=O)N2CCN(c3ccc(C(=O)/C=C/c4ccccc4)cc3)CC2)cc1`, the inhibition in vivo at 40 mg/kg was 30.8%.
`COc1ccc(N2CCN(c3ccc(C(=O)/C=C/c4ccc(Cl)cc4)cc3)CC2)cc1` showed an inhibition in vivo at 40 mg/kg of 55.1%.
`O=C(/C=C/c1ccccc1)c1ccc(N2CCN(c3ccccc3F)CC2)cc1` gave an inhibition in vivo at 40 mg/kg of 0.57%.
Work on `Cc1ccc(N2CCN(c3ccc(C(=O)/C=C/c4ccccc4)cc3)CC2)cc1` yielded an inhibition in vivo at 40 mg/kg of 2.85%.
In the case of `O=C(/C=C/c1ccccc1)c1ccc(N2CCN(c3cccc(Cl)c3)CC2)cc1`, the inhibition in vivo at 40 mg/kg is reported as 14.1%.
`COc1ccc(/C=C/C(=O)c2ccc(N3CCN(c4ccc(Cl)c(Cl)c4)CC3)cc2)cc1OC` gave an inhibition in vivo at 40 mg/kg of 63.5%.
Work on `O=C(/C=C/c1ccccc1)c1ccc(N2CCN(Cc3ccccc3)CC2)cc1` yielded an inhibition in vivo at 40 mg/kg of 17.7%.
Molecule `COc1ccc(/C=C/C(=O)c2ccc(N3CCN(c4ccc(C)cc4C)CC3)cc2)cc1OC` has an inhibition in vivo at 40 mg/kg of 48.5%.
With `CC(C)c1cc(C(C)C)c(S(=O)(=O)N2CCN(c3ccc(C(=O)/C=C/c4ccccc4)cc3)CC2)c(C(C)C)c1` the inhibition in vivo at 40 mg/kg was 60.1%.

The molecules below were run on RAW264.7 (assay: Anti-inflammatory activity in mouse RAW264.7 cells assessed as inhibition of LPS-induced TNF-alpha production pretreated for 2 hrs followed by LPS challenge measured after 22 hrs by ELISA). Conditions: not given.
Assay type: functional, cell-based
In the case of `COc1ccc(/C=C/C(=O)c2ccc(N3CCN(S(=O)(=O)c4ccc(Br)cc4)CC3)cc2)cc1OC`, the inhibition is reported as “Dose-dependent effect”.

Reference: ChEMBL document CHEMBL4000197, “Design, synthesis, biological evaluation, and molecular docking of chalcone derivatives as anti-inflammatory agents” (Bioorg Med Chem Lett, 2017)
